Test results from patent US12447213B2, “Modulation of novel immune checkpoint targets” (The Brigham and Women's Hospital, Inc., priority 2016, dated 2025).

Assays:
Factor VII = settings: LNP siRNA systems containing these lipids; cited from earlier work
Th17 cells [1] = assay: Binding of recombinant His-tagged integrin αvβ3 to Th17 cells (FACS); parameters: species or system mice; settings: pathogenic and non-pathogenic Th17
Experimental: (§1) FIG. 38. Integrin avb3 doesn't bind to Th17 cells (in Hank's balanced salt solution ((HBSS)) in the presence of Ca2+ and Mg2+. In vitro differentiated pathogenic and non-pathogenic Th17 cells were incubated with recombinant His-tagged integrin avb3 in HBSS buffer at room temperature for 30 min, washed twice, and then incubated with anti-His antibody for 10 min. Stained cells were analyzed by FACS.
as §1, with “FIG. 39.” for “FIG. 38.”, “(in phosphate buffered saline ((PBS))” for “(in Hank's balanced salt solution ((HBSS))”, “the absence” for “the presence”, “integrin αvβ3” for “integrin avb3”, “in PBS” for “in HBSS”
Role of Gp49 Ligand Integrin αvβ3. Integrin αvβ3 is a known ligand of ILT-3 that induces human mast cell degranulation in a Gp49b dependent way. To determine the expression pattern of integrin αvβ3, FACs analysis was performed on various immune cell subsets. […] Expression of αv and β3 integrin were analyzed by FACS and qPCR on day 4. […] Stained cells were analyzed by FACS. […] Stained cells were analyzed by FACS. […] Next, the effect of plate-bound integrin was determined. […] Cytokine production from Th17 cells was measured by FACS on day 4.

Th17 cells [2] = assay: Th17 differentiation in the presence of plate bound integrin αvβ3, cytokine production by FACS; format: cell-based, mice; settings: 10 ug/ml, BSA as control
Experimental: FIG. 40. […] Anti-CD3/CD28 beads are used at a ratio of 1:1. Naïve T cells were differentiated into pathogenic or non-pathogenic Th17 cells in vitro with anti-CD3/CD28 Dynabeads (Thermo Fisher Scientific) in the presence of plate bound integrin avb3 (10 ug/ml) or BSA (10 ug/ml) as control. Cytokine production from Th17 cells were measured by FACS on day 4.
Role of Gp49 Ligand Integrin αvβ3. Integrin αvβ3 is a known ligand of ILT-3 that induces human mast cell degranulation in a Gp49b dependent way. To determine the expression pattern of integrin αvβ3, FACs analysis was performed on various immune cell subsets. CD4^+CD44^loCD62L^hi naïve CD4 T cells were sorted by FACS and cultured in vitro with plate-bound anti-CD3 (2 ug/ml) and anti-CD28 (2 ug/ml) plus the following polarizing cytokines: IL12 (20 ng/ml) for Th1 cells; IL4 (20 ng/ml) for Th2 cells; TGFb (5 ng/ml) for iTreg cells; IL27 (25 ng/ml) for Tr1 cells; TGFb (2 ng/ml) and IL6 (25 ng/ml) for non-pathogenic Th17; IL1 (20 ng/ml), IL6 (25 ng/ml) and IL23 (20 ng/ml) for pathogenic Th17. Expression of αv and β3 integrin were analyzed by FACS and qPCR on day 4. […] Stained cells were analyzed by FACS. […] Stained cells were analyzed by FACS. […] Next, the effect of plate-bound integrin was determined. […] Cytokine production from Th17 cells was measured by FACS on day 4.

naïve CD4 T cells = assay: Gp49 expression on naïve CD4 T cells cultured with polarizing cytokines (FACS day 3); format: cell-based, mice; settings: plate-bound anti-CD3/anti-CD28 plus polarizing cytokines
[3] = system: naïve CD4+ and CD8+ T cells; assay: In vitro T-cell differentiation with IL-27: co-inhibitory receptor expression by real-time PCR and flow cytometry; format: cell-based, mice
Source text: FIG. 1A-1M. illustrates that IL-27 induces multiple co-inhibitory receptors on CD4^+ and CD8^+ T cells. CD4^+ and CD8^+ tumor-infiltrating lymphocytes (TILs) harvested from wild type (WT) mice bearing B16F10 melanoma tumors. FIG. 1A) Naïve T cells from either WT or IL-27ra deficient mice (IL27ra KO) were stimulated with anti-CD3/CD28 in the presence or absence of IL-27 as indicated. Expression of the indicated co-inhibitory molecules was examined by real-time PCR at 96 hr (CD4) and 72 hr (CD8), n≥3, error bars indicate s.e.m. FIG. 1B) Surface expression of co-inhibitory receptors on T cells stimulated as in (A) was determined by flow cytometry. Representative data are shown. FIG. 1C) Co-expression analysis of co-inhibitory and co-stimulatory receptor mRNA expression as determined by single cell RNAseq (316 and 516 for CD4^+ and CD8^+ respectively). For visualization purposes negative correlation values were set to zero. FIG. 1D) Protein expression by CyTOF for 23,656 CD4^+ and 36,486 CD8^+ TILs. Co-expression was analyzed using Spearman correlation. For visualization purposes negative correlation values were set to zero. FIG. 1E) TILs were harvested from WT and IL27ra KO mice bearing B16F10 melanoma and analyzed using CyTOF. CyTOF data were analyzed using vi-SNE. Polygons indicating clusters 1, 2 (in CD8^+ T cells), 3 and 4 (in CD4^+ T cells) are shown. FIG. 1F) The within groups sum of squared error (SSE) plot. […] FIG. 1G) Gap statistics for estimating the optimal number of clusters using k-means from 1 up to 12 clusters using bootstrapping and first SE max method. […] Visualization of cluster distribution using two-dimensional non-linear embedding of the protein expression profiles by t-SNE. FIG. 1I) CyTOF expression analysis of co-inhibitory and co-stimulatory receptors in TILs harvested from B16F10 melanoma tumor-bearing WT and […] mice from FIG. 1A and FIG. 1J using t-SNE. FIG. 1J) vi-SNE plot highlighting the distribution of CD8^+ TILs from WT (red) and IL27ra KO (blue) mice in clusters 1 and 2 and CD4^+ TILs from WT (red) and IL27ra KO (blue) mice in clusters 3 and 4. Pie charts show the distribution of WT or IL27ra KO CD8^+ and CD4^+ TILs in each cluster. Bar graphs show the mean of signal intensity for PD-1, Tim-3, Lag-3, and TIGIT from WT and IL27ra KO TILs. Error bars are the standard error and p-values for significance are calculated using standard t-test (**p<0.01). FIG. 1K) Expression of PD-1, Tim-3, Lag-3, TIGIT, and IL-10 on CD8^+ TILs obtained from WT and IL27ra KO mice bearing B16F10 melanoma was determined by flow cytometry. Thy1.1-IL-10 reporter mice crossed with WT and IL27ra KO mice were used for IL-10 expression analysis. FIG. 1L, FIG. 1M) Impact of IL-27 signaling on co-inhibitory receptor expression in TILs. Pie charts show the distribution of CD8^+ and CD4^+ TILs from WT and IL27ra KO mice bearing B16F10 melanoma between clusters 1 and 2 for CD8^+ and between clusters 3 and 4 for CD4^+ TILs as determined by k-means clustering of CyTOF protein expression data.
Flow cytometry: Single cell suspensions were stained with antibodies against CD4 (RM4-5), CD8 (53-6.7), PD-1 (RMP1-30), Lag-3 (C9B7W), TIGIT (GIGD7), and Tim-3 (5D12), Procr (eBio1560), and Pdpn (8.1.1) and were obtained from BioLegend (San Diego, Calif.). Fixable viability dye eF506 (eBioscience) was used to exclude dead cells. For intra-cytoplasmic cytokine staining, cells were stimulated with (PMA) (50 ng/ml, Sigma-Aldrich, MO), ionomycin (1 μg/ml, Sigma-Aldrich, MO). Permeabilized cells were then stained with antibodies against IL-2, TNF-α, IFN-γ or IL-10. All data were collected on a BD LSR II (BD Biosciences) and analyzed with FlowJo software (Tree Star).
In vitro T-cell differentiation: CD4^+ and CD8^+ T cells were purified from spleen and lymph nodes using anti-CD4 microbeads (Miltenyi Biotech) then stained in PBS with 0.5% BSA for 15 min on ice with anti-CD4, anti-CD8, anti-CD62L, and anti-CD44 antibodies (all from Biolegend, CA). […]

[4] = activation of naïve CD4+ and CD8+ T cells in vitro in the presence of IL-27
[5] = anti-CD3/CD28 in the presence of IL-27, CD4+ and CD8+ T cells

## 1,2-dilinoleyloxy-keto-N,N-dimethyl-3-aminopropane [DLinKDMA]
Factor VII
  gene silencing potency series: DLinKC2-DMA>DLinKDMA>DLinDMA>>DLinDAP

## CCCCC/C=C\C/C=C\CCCCCCCC(=O)OCC(CN(C)C)OC(=O)CCCCCCC/C=C\C/C=C\CCCCC (centres unmarked) [DLinDAP, 1,2-dilineoyl-3-dimethylammonium-propane]
Factor VII
  gene silencing potency series: DLinKC2-DMA>DLinKDMA>DLinDMA>>DLinDAP

## CCCCC/C=C\C/C=C\CCCCCCCCOCC(CN(C)C)OCCCCCCCC/C=C\C/C=C\CCCCC (centres unmarked) [DLinDMA, 1,2-dilinoleyloxy-3-N,N-dimethylaminopropane]
Factor VII
  gene silencing potency series: DLinKC2-DMA>DLinKDMA>DLinDMA>>DLinDAP

## CCCCC/C=C\C/C=C\CCCCCCCCC1(CCCCCCCC/C=C\C/C=C\CCCCC)OCC(CCN(C)C)O1 (centres unmarked) [DLinKC2-DMA, 1,2-dilinoleyl-4-(2-dimethylaminoethyl)-[1,3]-dioxolane]
Factor VII
  gene silencing potency series: DLinKC2-DMA>DLinKDMA>DLinDMA>>DLinDAP

## Integrin αvβ3: recombinant His-tagged integrin αvβ3, a known ligand of ILT-3
Th17 cells [1]; HBSS, in the presence of Ca2+ and Mg2+
  binding to Th17 cells: doesn't bind
Th17 cells [1]; PBS, in the absence of Ca2+ and Mg2+
  binding to Th17 cells: doesn't bind
Th17 cells [2]
  effect on Th17 cells (cytokine production, FACS day 4): does not appear to have much effect

## TGFb
naïve CD4 T cells
  Gp49 expression: inhibited

B1: IL-27: heterodimeric cytokine, member of the IL-12 family; rmIL-27 (25 ng/ml) (eBioscience) used in vitro (protein)
chain 1: FPTDPLSLQELRREFTVSLYLARKLLSEVQGYVHSFAESRLPGVNLDLLPLGYHLPNVSLTFQAWHHLSDSERLCFLATTLRPFPAMLGGLGTQGTWTSSEREQLWAMRLDLRDLHRHLRFQVLAAGFKCSKEEEDKEEEEEEEEEEKKLPLGALGGPNQVSSQVSWPQLLYTYQLLHSLELVLSRAVRDLLLLSLPRRPGSAWDS
chain 2: YTETALVALSQPRVQCHASRYPVAVDCSWTPLQAPNSTRSTSFIATYRLGVATQQQSQPCLQRSPQASRCTIPDVHLFSTVPYMLNVTAVHPGGASSSLLAFVAERIIKPDPPEGVRLRTAGQRLQVLWHPPASWPFPDIFSLKYRLRYRRRGASHFRQVGPIEATTFTLRNSKPHAKYCIQVSAQDLTDYGKPSDWSLPGQVESAPHKP
[3]; [4]
  Pdpn expression by qPCR and flow cytometry: induced
  Procr expression by qPCR and flow cytometry: induced
[3]; [5]
  Lag-3 expression, mRNA and protein level: induced
  TIGIT expression, mRNA and protein level: induced
  Tim-3 (Havcr2) expression, mRNA and protein level: induced
[3]; in vitro, anti-CD3/CD28 in the presence of IL-27
  PD-1 (Pdcd1) expression: not affected
